Results taken from patent US20190022152A1, “MICROBIOME RESPONSE TO AGENTS” (Yeda Research and Development Co., Ltd., priority 2014, published 2019).

Tests used:
[1] = system: fecal microbiota
Experimental: Frozen fecal samples were processed for DNA isolation using the MoBio PowerSoil kit according to the manufacturer's instructions. 1 ng of the purified fecal DNA was used for PCR amplification and sequencing of the bacterial 16S rRNA gene. ˜365 bp Amplicons spanning the variable region 2 (V2) of the 16S rRNA gene were generated by using the following barcoded primers: Fwd 5′-[…]-3′ (SEQ ID NO: 3), Rev 5′-[…]-3′ (SEQ ID NO: 4). […] Reads were then processed using the QIIME (Quantitative Insights Into Microbial Ecology) analysis pipeline as described, version 1.8. Paired-end joined sequences were grouped into operational taxonomic units (OTUs) using the UCLUST algorithm and the greengenes database. Sequences with distance-based similarity of 97% or greater over median sequence length of 353 bp were assigned to the same OTU. Samples were grouped according to the treatment. Analysis was performed at each taxonomical level (Phylum-genus+OTU level) separately. For each taxon, G test was performed between the different groups. P-values were FDR corrected for multiple hypothesis testing.

[2] = system: fecal microbiota KEGG pathways; experiment: Shotgun metagenomic sequencing: KEGG pathway abundance (Table 2); assay type: in vivo, mice
Experimental: Illumina sequence reads were mapped to the human microbiome reference genome database of the Human Microbiome Project [www(dot)hmpdacc(dot)org/HMREFG/^32], and to a gut microbial gene catalogue^33 using GEM mapper^58 with the following parameters: • -m 3 -s 0 -q offset-33 -gem-quality-threshold 26
Microbial species abundance was measured as the fraction of reads that mapped to a single species in the database. An EM algorithm adapted from Pathoscope^59 was employed to determine the correct assignment of reads that mapped to more than one species. We considered only species for which at least 10% of the genome was covered (each coverage bin was 10,000-bp long) in at least one of the growth conditions (saccharin, water, or glucose). Reads mapped to the gut microbial gene catalogue were assigned a KEGG^34,35 ID according to the mapping available with the catalogue. Genes were subsequently mapped to KEGG pathways, and only pathways whose gene coverage was above 0.2 were included.

O=C1NS(=O)(=O)c2ccccc21 [saccharin]
microbiota composition (dysbiosis) ([1]; mice consuming pure saccharin and HFD): dysbiosis was observed
operational taxonomic units (OTUs) significantly altered in abundance ([1]; saccharin-consuming mice vs all control groups, week 11, FDR corrected p<0.05 (FIG. 21: commercial saccharin)): > 40
glycan degradation pathways abundance ([2]; GF mice transplanted with microbiomes cultured in vitro with 5 mgml^−1 saccharin vs PBS): highly enriched
Log_fold change: 2-Oxocarboxylic acid metabolism ([2]; In vivo (week 11/week 0)): 0.10
Log_fold change: ABC transporters ([2]; In vivo (week 11/week 0)): 0.02
Log_fold change: Alanine, aspartate and glutamate metabolism ([2]; In vivo (week 11/week 0)): 0.02
Log_fold change: Amino sugar and nucleotide sugar metabolism ([2]; In vivo (week 11/week 0)): 0.09
Log_fold change: Aminoacyl-tRNA biosynthesis ([2]; In vivo (week 11/week 0)): −0.13
Log_fold change: Aminobenzoate degradation ([2]; In vivo (week 11/week 0)): 0.04
Log_fold change: Arginine and proline metabolism ([2]; In vivo (week 11/week 0)): 0.05
Log_fold change: Ascorbate and aldarate metabolism ([2]; In vivo (week 11/week 0)): 0.27
Log_fold change: Atrazine degradation ([2]; In vivo (week 11/week 0)): 0.12
Log_fold change: Bacterial chemotaxis ([2]; In vivo (week 11/week 0)): 0.30
Log_fold change: Bacterial secretion system ([2]; In vivo (week 11/week 0)): −0.10
Log_fold change: Base excision repair ([2]; In vivo (week 11/week 0)): 0.03
Log_fold change: Benzoate degradation ([2]; In vivo (week 11/week 0)): 0.00
Log_fold change: Biosynthesis of amino acids ([2]; In vivo (week 11/week 0)): 0.03
Log_fold change: Biosynthesis of siderophore group nonribosomal peptides ([2]; In vivo (week 11/week 0)): 0.16
Log_fold change: Biosynthesis of unsaturated fatty acids ([2]; In vivo (week 11/week 0)): −0.07
Log_fold change: Biotin metabolism ([2]; In vivo (week 11/week 0)): 0.13
Log_fold change: Bisphenol degradation ([2]; In vivo (week 11/week 0)): 0.04
Log_fold change: Butanoate metabolism ([2]; In vivo (week 11/week 0)): 0.00
Log_fold change: CS-Branched dibasic acid metabolism ([2]; In vivo (week 11/week 0)): 0.11
Log_fold change: Caprolactam degradation ([2]; In vivo (week 11/week 0)): 0.29
Log_fold change: Carbon fixation in photosynthetic organisms ([2]; In vivo (week 11/week 0)): −0.13
Log_fold change: Carbon fixation pathways in prokaryotes ([2]; In vivo (week 11/week 0)): 0.01
Log_fold change: Carbon metabolism ([2]; In vivo (week 11/week 0)): 0.00
Log_fold change: Cell cycle-Caulobacter ([2]; In vivo (week 11/week 0)): −0.06
Log_fold change: Chloroalkane and chloroalkene degradation ([2]; In vivo (week 11/week 0)): −0.07
Log_fold change: Citrate cycle (TCA cycle) ([2]; In vivo (week 11/week 0)): 0.03
Log_fold change: Cyanoamino acid metabolism ([2]; In vivo (week 11/week 0)): 0.18
Log_fold change: Cysteine and methionine metabolism ([2]; In vivo (week 11/week 0)): −0.02
Log_fold change: D-Alanine metabolism ([2]; In vivo (week 11/week 0)): −0.10
Log_fold change: D-Arginine and D-ornithine metabolism ([2]; In vivo (week 11/week 0)): −0.08
Log_fold change: D-Glutamine and D-glutamate metabolism ([2]; In vivo (week 11/week 0)): −0.04
Log_fold change: DDT degradation ([2]; In vivo (week 11/week 0)): −0.61
Log_fold change: DNA replication ([2]; In vivo (week 11/week 0)): −0.06
Log_fold change: Dioxin degradation ([2]; In vivo (week 11/week 0)): −0.34
Log_fold change: Drug metabolism-other enzymes ([2]; In vivo (week 11/week 0)): 0.05
Log_fold change: Ether lipid metabolism ([2]; In vivo (week 11/week 0)): 0.05
Log_fold change: Fatty acid biosynthesis ([2]; In vivo (week 11/week 0)): 0.05
Log_fold change: Fatty acid degradation ([2]; In vivo (week 11/week 0)): −0.03
Log_fold change: Fatty acid metabolism ([2]; In vivo (week 11/week 0)): 0.06
Log_fold change: Flagellar assembly ([2]; In vivo (week 11/week 0)): −0.18
Log_fold change: Folate biosynthesis ([2]; In vivo (week 11/week 0)): 0.13
Log_fold change: Fructose and mannose metabolism ([2]; In vivo (week 11/week 0)): 0.18
Log_fold change: Galactose metabolism ([2]; In vivo (week 11/week 0)): 0.24
Log_fold change: Geraniol degradation ([2]; In vivo (week 11/week 0)): 0.04
Log_fold change: Glutathione metabolism ([2]; In vivo (week 11/week 0)): 0.12
Log_fold change: Glycerolipid metabolism ([2]; In vivo (week 11/week 0)): 0.11
Log_fold change: Glycerophospholipid metabolism ([2]; In vivo (week 11/week 0)): 0.06
Log_fold change: Glycine, serine and threonine metabolism ([2]; In vivo (week 11/week 0)): 0.13
Log_fold change: Glycolysis/Gluconeogenesis ([2]; In vivo (week 11/week 0)): −0.09
Log_fold change: Glycosaminoglycan degradation ([2]; In vivo (week 11/week 0)): 0.34
Log_fold change: Glycosphingolipid biosynthesis-globoseries ([2]; In vivo (week 11/week 0)): 0.33
Log_fold change: Glyoxylate and dicarboxylate metabolism ([2]; In vivo (week 11/week 0)): 0.13
Log_fold change: Histidine metabolism ([2]; In vivo (week 11/week 0)): 0.13
Log_fold change: Homologous recombination ([2]; In vivo (week 11/week 0)): −0.09
Log_fold change: Inositol phosphate metabolism ([2]; In vivo (week 11/week 0)): −0.01
Log_fold change: Limonene and pinene degradation ([2]; In vivo (week 11/week 0)): 0.04
Log_fold change: Lipoicacid metabolism ([2]; In vivo (week 11/week 0)): 0.36
Log_fold change: Lipopolysaccharide biosynthesis ([2]; In vivo (week 11/week 0)): 0.21
Log_fold change: Lysine biosynthesis ([2]; In vivo (week 11/week 0)): −0.07
Log_fold change: Lysine degradation ([2]; In vivo (week 11/week 0)): 0.14
Log_fold change: Methane metabolism ([2]; In vivo (week 11/week 0)): 0.02
Log_fold change: Mismatch repair ([2]; In vivo (week 11/week 0)): −0.03
Log_fold change: Naphthalene degradation ([2]; In vivo (week 11/week 0)): 0.04
Log_fold change: Nicotinate and nicotinamide metabolism ([2]; In vivo (week 11/week 0)): −0.05
Log_fold change: Nitrogen metabolism ([2]; In vivo (week 11/week 0)): 0.00
Log_fold change: Nitrotoluene degradation ([2]; In vivo (week 11/week 0)): −0.22
Log_fold change: Novobiocin biosynthesis ([2]; In vivo (week 11/week 0)): 0.29
Log_fold change: Nucleotide excision repair ([2]; In vivo (week 11/week 0)): −0.08
Log_fold change: One carbon pool by folate ([2]; In vivo (week 11/week 0)): 0.07
Log_fold change: Other glycan degradation ([2]; In vivo (week 11/week 0)): 0.36
Log_fold change: Oxidative phosphorylation ([2]; In vivo (week 11/week 0)): −0.03
Log_fold change: Pantothenate and CoA biosynthesis ([2]; In vivo (week 11/week 0)): 0.04
Log_fold change: Penicillin and cephalosporin biosynthesis ([2]; In vivo (week 11/week 0)): 0.00
Log_fold change: Pentose and glucuronate interconversions ([2]; In vivo (week 11/week 0)): 0.31
Log_fold change: Pentose phosphate pathway ([2]; In vivo (week 11/week 0)): 0.03
Log_fold change: Peptidoglycan biosynthesis ([2]; In vivo (week 11/week 0)): 0.01
Log_fold change: Phenylalanine metabolism ([2]; In vivo (week 11/week 0)): 0.30
Log_fold change: Phenylalanine, tyrosine and tryptophan biosynthesis ([2]; In vivo (week 11/week 0)): 0.24
Log_fold change: Phosphonate and phosphinate metabolism ([2]; In vivo (week 11/week 0)): 0.30
Log_fold change: Phosphotransferase system (PTS) ([2]; In vivo (week 11/week 0)): −0.43
Log_fold change: Porphyrin and chlorophyll metabolism ([2]; In vivo (week 11/week 0)): 0.23
Log_fold change: Propanoate metabolism ([2]; In vivo (week 11/week 0)): 0.02
Log_fold change: Protein export ([2]; In vivo (week 11/week 0)): −0.04
Log_fold change: Proximal tubule bicarbonate reclamation ([2]; In vivo (week 11/week 0)): −0.01
Log_fold change: Purine metabolism ([2]; In vivo (week 11/week 0)): −0.08
Log_fold change: Pyrimidine metabolism ([2]; In vivo (week 11/week 0)): −0.08
Log_fold change: Pyruvate metabolism ([2]; In vivo (week 11/week 0)): 0.01
Log_fold change: RNA degradation ([2]; In vivo (week 11/week 0)): −0.05
Log_fold change: Riboflavin metabolism ([2]; In vivo (week 11/week 0)): −0.02
Log_fold change: Ribosome ([2]; In vivo (week 11/week 0)): −0.24
Log_fold change: Selenocompound metabolism ([2]; In vivo (week 11/week 0)): 0.03
Log_fold change: Sphingolipid metabolism ([2]; In vivo (week 11/week 0)): 0.34
Log_fold change: Starch and sucrose metabolism ([2]; In vivo (week 11/week 0)): 0.19
Log_fold change: Streptomycin biosynthesis ([2]; In vivo (week 11/week 0)): 0.10
Log_fold change: Styrene degradation ([2]; In vivo (week 11/week 0)): −0.06
Log_fold change: Sulfur metabolism ([2]; In vivo (week 11/week 0)): 0.19
Log_fold change: Sulfur relay system ([2]; In vivo (week 11/week 0)): −0.03
Log_fold change: Synthesis and degradation of ketone bodies ([2]; In vivo (week 11/week 0)): −0.35
Log_fold change: Taurine and hypotaurine metabolism ([2]; In vivo (week 11/week 0)): 0.14
Log_fold change: Terpenoid backbone biosynthesis ([2]; In vivo (week 11/week 0)): 0.04
Log_fold change: Tetracycline biosynthesis ([2]; In vivo (week 11/week 0)): −0.50
Log_fold change: Thiamine metabolism ([2]; In vivo (week 11/week 0)): −0.03
Log_fold change: Tropane, piperidine and pyridine alkaloid biosynthesis ([2]; In vivo (week 11/week 0)): 0.27
Log_fold change: Tryptophan metabolism ([2]; In vivo (week 11/week 0)): 0.01
Log_fold change: Two−component system ([2]; In vivo (week 11/week 0)): 0.06
Log_fold change: Tyrosine metabolism ([2]; In vivo (week 11/week 0)): 0.02
Log_fold change: Ubiquinone and other terpenoid-quinone biosynthesis ([2]; In vivo (week 11/week 0)): 0.03
Log_fold change: Valine, leucine and isoleucine biosynthesis ([2]; In vivo (week 11/week 0)): 0.10
Log_fold change: Valine, leucine and isoleucine degradation ([2]; In vivo (week 11/week 0)): 0.06
Log_fold change: Vibriocholerae pathogenic cycle ([2]; In vivo (week 11/week 0)): −0.01
Log_fold change: Vitamin B6 metabolism ([2]; In vivo (week 11/week 0)): 0.16
Log_fold change: Xylene degradation ([2]; In vivo (week 11/week 0)): −0.51
Log_fold change: beta-Alanine metabolism ([2]; In vivo (week 11/week 0)): 0.14
Log_fold change: beta-Lactam resistance ([2]; In vivo (week 11/week 0)): 0.11
KEGG pathways incl. ascorbate and aldarate metabolism, lipopolysaccharide biosynthesis, bacterial chemotaxis ([2]; mice consuming HFD and pure saccharin vs water): multiple enriched pathways
starch and sucrose, fructose and mannose metabolism, folate-, glycerolipid- and fatty acid biosynthesis pathways ([2]; microbiomes of saccharin consuming mice): enriched
glucose transport pathways ([2]; saccharin-consuming mice): underrepresented
glycan degradation pathways abundance ([2]; saccharin-consuming mice, week 11 vs week 0): strong increase
